Literature values in patent US10576062B2, “Carbamoyloxymethyl triazole cyclohexyl acids as LPA antagonists” (Bristol-Myers Squibb Company, priority 2016, dated 2020).

Legend:
nerve-injured mice = conditions: pretreatment; cited from earlier work
[1] = tested on: mouse epithelial renal cell line, MCT; conditions: MCT cells, co-treatment with LPA; cited from earlier work
[2] = tested on: human foetal lung fibroblasts; conditions: cited from earlier work
[3] = tested on: pancreatic cancer cell lines; conditions: cited from earlier work
UUO mice = UUO mice treated with the antagonist; cited from earlier work

Structure (SMILES) | allodynia and hyperalgesia (nerve-injured mice) | LPA-induced increase in expression of CTGF [1] | chemotaxis of human foetal lung fibroblasts induced by BAL from IPF patients [2] | LPA-induced and ascites-induced invasion activity ([3]; highly peritoneal metastatic pancreatic cancer cell line) | in vitro migration in response to LPA and peritoneal fluid (ascites) from pancreatic cancer patients ([3]; pancreatic cancer cell lines) | development of renal fibrosis in UUO mice (UUO mice)
C[C@@H](N)[C@H]1CC[C@H](C(=O)Nc2ccncc2)CC1 [Example Y-27632] | completely abolished | – | – | – | – | –
Cc1noc(-c2ccc(CSCCC(=O)O)cc2)c1NC(=O)OC(C)c1ccccc1Cl (stereo not drawn) [Ki16425] | – | almost completely suppressed | blocked | blocked | effectively blocked | closely resembled the profile of LPA1 (−/−) mice
